The test system of one data set is MDA-468 tumor cell line. As to the kind of experiment: Conventional cell-based assay against the MDA-468 tumor cell line. The text has this:
Cell-based methods for measuring antiproliferative activity are well known and can be used for comparative characterization of compounds of this invention. In general, cell proliferation and cell viability assays are designed to provide a detectable signal when cells are metabolically active. Compounds may be tested for antiproliferative activity by measuring any observed decrease in metabolic activity of the cells after exposure of the cells to compound. Commonly used methods include, for example, measurement of membrane integrity (as a measure of cell viability)(e.g. using trypan blue exclusion) or measurement of DNA synthesis (e.g. by measuring incorporation of BrdU or 3H-thymidine).
Some methods for assaying cell proliferation use a reagent that is converted into a detectable compound during cell proliferation. Particularly preferred compounds are tetrazolium salts and include without limitation MTT (3-(4, 5-dimethylthiazol-2-yl)-2,5-diphenyltetrazolium bromide; Sigma-Aldrich, St. Louis, Mo.), MTS (3-(4,5-dimethylthiazol-2-yl)-5-(3-carboxymethoxyphenyl)-2-(4-sulfophenyl)-2H-tetrazolium), XTT (2,3-bis(2-Methoxy4-nitro-5-sulfophenyl)-2H-tetrazolium-5-carboxanilide), INT, NBT, and NTV (Bernas et al. Biochim Biophys Acta 1451(1):73–81, 1999). Preferred assays utilizing tetrazolium salts detect cell proliferation by detecting the product of the enzymatic conversion of the tetrazolium salts into blue formazan derivatives, which are readily detected by spectroscopic methods (Mosman. J. Immunol. Methods. 65:55–63, 1983).
Generally, preferred methods for assaying cell proliferation involve incubating cells in a desired growth medium with and without the compounds to be tested. […] Cells are processed, and the optical density of the cells is determined to measure the amount of formazan derivatives. […]

As usually defined, the melting point is the temperature of the solid-liquid transition. By IC50 is commonly meant the concentration at which inhibition is half-maximal.

Molecule `CCOP(C)(=O)c1cc2c(Nc3ccc(F)c(Cl)c3)ncnc2cc1OC` (stereo not drawn) [Example 7, 4-[(3-Chloro-4-fluorophenyl)amino]-7-methoxy-6-(ethyl-methylphosphinate)-quinazoline] gave a melting point of 199 to 200 °C. In the data set with MDA-468 tumor cell line, this molecule gave an IC50 below 50 µM.
The matching figures for `CCOP(=O)(OCC)c1cc2c(Nc3ccc(F)c(Cl)c3)ncnc2cc1OC` [Example 5, 4-[(3-Chloro-4-fluorophenyl)amino]-7-methoxy-6-(diethylphosphonate)-quinazoline]: 215 to 217 °C and below 50 µM.
The matching figures for `COc1cc2ncnc(Nc3ccc(F)c(Cl)c3)c2cc1P(C)(C)=O` [Example 3, 4-[(3-Chloro-4-fluorophenyl)amino]-7-methoxy-6-(dimethylphosphinoyl)-quinazoline]: 257 to 259 °C and below 50 µM.

The values above are taken from patent publication US7238679B2, “Heterocycles and uses thereof” (Ariad Pharmaceuticals, Inc., priority 2002, dated 2007).
